How the values were obtained:
Type in all cases: cell-based
NCI-H2030 [G12C] [1] = assay: Protac activity at E3 ubiquitin ligase/KRAS G12C mutant in human NCI-H2030 cells assessed as maximal KRAS degradation at 3 uM after 24 hrs by Western blot analysis relative to control
NCI-H2030 [G12C] [2] = assay: Protac activity at E3 ubiquitin ligase/KRAS G12C mutant in human NCI-H2030 cells assessed as maximal KRAS degradation at 0.3 uM after 24 hrs by Western blot analysis relative to control
NCI-H2030 [G12C] [3] = assay: Protac activity at E3 ubiquitin ligase/KRAS G12C mutant in human NCI-H2030 cells assessed as maximal KRAS degradation at 1 uM after 24 hrs by Western blot analysis relative to control

Sequence of NCI-H2030 [G12C] (as listed by the source, stated change not applied): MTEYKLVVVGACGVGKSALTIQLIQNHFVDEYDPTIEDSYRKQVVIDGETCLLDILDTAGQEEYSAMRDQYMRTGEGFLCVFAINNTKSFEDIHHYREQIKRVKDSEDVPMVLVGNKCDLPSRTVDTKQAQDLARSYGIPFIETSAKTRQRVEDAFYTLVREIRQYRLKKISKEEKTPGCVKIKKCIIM

SMILES	Emax (NCI-H2030 [G12C] [1]) [%]	Emax (NCI-H2030 [G12C] [2]) [%]	Emax (NCI-H2030 [G12C] [3]) [%]
C=CC(=O)N1CCN(c2nc(NCCC(=O)N(C)CCOCCOCCOCCOCC(=O)N[C@H](C(=O)N3C[C@H](O)C[C@H]3C(=O)N[C@@H](C)c3ccc(-c4scnc4C)cc3)C(C)(C)C)nc3c(F)c(-c4cc(O)cc5ccccc45)c(Cl)cc23)CC1	> 50	< 25	> 50
C=CC(=O)N1CCN(c2nc(NCCC(=O)N(C)CCOCCOCCOCCNc3cccc4c3C(=O)N(C3CCC(=O)NC3=O)C4=O)nc3c(F)c(-c4cc(O)cc5ccccc45)c(Cl)cc23)CC1 (stereo not drawn)	25 to 50	< 25	25 to 50
C=CC(=O)N1CCN(c2nc(NCCC(=O)N(C)CCOCCOCCOCCOCCOCC(=O)N[C@H](C(=O)N3C[C@H](O)C[C@H]3C(=O)N[C@@H](C)c3ccc(-c4scnc4C)cc3)C(C)(C)C)nc3c(F)c(-c4cc(O)cc5ccccc45)c(Cl)cc23)CC1	> 50	< 25	> 50
CCC(=O)N1CCN(c2nc(NCCC(=O)N(C)CCOCCOCCOCCOCC(=O)N[C@H](C(=O)N3C[C@H](O)C[C@H]3C(=O)N[C@@H](C)c3ccc(-c4scnc4C)cc3)C(C)(C)C)nc3c(F)c(-c4cc(O)cc5ccccc45)c(Cl)cc23)CC1	< 25	< 25	< 25
CCC(=O)N1CCN(c2nc(NCCC(=O)N(C)CCOCCOCCOCCOCCOc3ccc4c(c3)CN(C3CCC(=O)NC3=O)C4=O)nc3c(F)c(-c4cc(O)cc5ccccc45)c(Cl)cc23)CC1 (stereo not drawn)	25 to 50	< 25	25 to 50
C=CC(=O)N1CCN(c2nc(NCCC(=O)N(C)CCOCCOCCOCC(=O)N[C@H](C(=O)N3C[C@H](O)C[C@H]3C(=O)N[C@@H](C)c3ccc(-c4scnc4C)cc3)C(C)(C)C)nc3c(F)c(-c4cc(O)cc5ccccc45)c(Cl)cc23)CC1	25 to 50	< 25	25 to 50

— ChEMBL document CHEMBL4334536, “PROTAC-Mediated Degradation of KRAS Protein for Anticancer Therapeutics” (ACS Med Chem Lett, 2020)
